Measured values published in PubChem BioAssay (NCI).
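Protocol summary: plate cells (96-well), add compound at 5 concentrations, incubate 48 h, interpolate endpoints linearly. TGI: concentration producing complete growth inhibition.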

Columns and labels:
Test in all cases: NCI anticancer screen, dose series, 48 h
OVCAR-8 ovarian = test system: OVCAR-8 ovarian
HCT-116 colon = test system: HCT-116 colon
SN12C renal = test system: SN12C renal
SF-268 CNS = test system: SF-268 CNS
SF-539 CNS = test system: SF-539 CNS
HT29 colon = test system: HT29 colon
CCRF-CEM leukemia = test system: CCRF-CEM leukemia
NCI-H522 lung = test system: NCI-H522 lung
TK-10 renal = test system: TK-10 renal
HCC-2998 colon = test system: HCC-2998 colon

## CN(CCO)/N=N/c1nc[nH]c1C(N)=O
OVCAR-8 ovarian
  TGI: > 100 µM
HCT-116 colon
  TGI: > 100 µM
SN12C renal
  TGI: > 100 µM
SF-268 CNS
  TGI: > 100 µM
SF-539 CNS
  TGI: > 100 µM
HT29 colon
  TGI: > 100 µM
CCRF-CEM leukemia
  TGI: > 100 µM
NCI-H522 lung
  TGI: > 100 µM
TK-10 renal
  TGI: > 100 µM
HCC-2998 colon
  TGI: > 100 µM

## CCOC(=O)/C(=N/Nc1ccc(Cl)cc1)N1C(=S)C=C(C)NN(C)C1=S
OVCAR-8 ovarian
  TGI: 73.1 µM
HCT-116 colon
  TGI: > 100 µM
SN12C renal
  TGI: > 100 µM
SF-268 CNS
  TGI: 85 µM
SF-539 CNS
  TGI: > 100 µM
HT29 colon
  TGI: > 100 µM
CCRF-CEM leukemia
  TGI: > 100 µM
NCI-H522 lung
  TGI: 50.2 µM
TK-10 renal
  TGI: > 100 µM
HCC-2998 colon
  TGI: > 100 µM

## C/C(=N\NC(=S)Nc1ccc(Cl)cc1)c1nc2ncccc2[nH]1
HCT-116 colon
  TGI: 13 µM
SN12C renal
  TGI: 31.4 µM
SF-268 CNS
  TGI: > 100 µM
SF-539 CNS
  TGI: 8.27 µM
HT29 colon
  TGI: 14.7 µM
NCI-H522 lung
  TGI: 20.2 µM
TK-10 renal
  TGI: 5.12 µM
HCC-2998 colon
  TGI: 21.1 µM

## Cc1ncc(CO)c(C=NCCCCCCN=Cc2c(CO)cnc(C)c2O)c1O
OVCAR-8 ovarian
  TGI: > 100 µM
HCT-116 colon
  TGI: > 100 µM
SN12C renal
  TGI: > 100 µM
SF-268 CNS
  TGI: > 100 µM
SF-539 CNS
  TGI: > 100 µM
HT29 colon
  TGI: > 100 µM
CCRF-CEM leukemia
  TGI: > 100 µM
NCI-H522 lung
  TGI: > 100 µM
TK-10 renal
  TGI: > 100 µM
HCC-2998 colon
  TGI: > 100 µM

## Cc1nc(N(CCO)CCO)c2sc(=S)n(-c3ccccc3)c2n1
OVCAR-8 ovarian
  TGI: > 100 µM
HCT-116 colon
  TGI: > 100 µM
SF-268 CNS
  TGI: > 100 µM
SF-539 CNS
  TGI: > 100 µM
HT29 colon
  TGI: > 100 µM
CCRF-CEM leukemia
  TGI: > 100 µM
NCI-H522 lung
  TGI: > 100 µM
TK-10 renal
  TGI: > 100 µM
HCC-2998 colon
  TGI: > 100 µM

## NC(=S)N/N=C/c1ccc(OC(=O)COc2ccccc2Cl)cn1
OVCAR-8 ovarian
  TGI: > 100 µM
HCT-116 colon
  TGI: > 90 µM
SN12C renal
  TGI: > 100 µM
SF-268 CNS
  TGI: > 100 µM
SF-539 CNS
  TGI: 52.2 µM
HT29 colon
  TGI: > 100 µM
CCRF-CEM leukemia
  TGI: > 65.8 µM
NCI-H522 lung
  TGI: > 77.2 µM
HCC-2998 colon
  TGI: > 87.4 µM

## COc1cc(C2S/C(=C/c3ccccc3)C(=O)N2c2ccccc2Cl)cc(OC)c1OC (stereo not drawn)
OVCAR-8 ovarian
  TGI: 49.8 µM
HCT-116 colon
  TGI: 62.6 µM
SN12C renal
  TGI: 62.1 µM
SF-268 CNS
  TGI: > 100 µM
HT29 colon
  TGI: 47.5 µM
NCI-H522 lung
  TGI: 39.2 µM
TK-10 renal
  TGI: > 100 µM
HCC-2998 colon
  TGI: > 100 µM

## COC(=O)C1=C(O)C(C(=O)OC)[C@@]2(O)[C@@H](C(=O)OC)CC[C@@H]1[C@@H]2C(=O)OC (stereo partly drawn)
HCT-116 colon
  TGI: > 100 µM
SN12C renal
  TGI: > 100 µM
SF-268 CNS
  TGI: 75.5 µM
SF-539 CNS
  TGI: 46.1 µM
HT29 colon
  TGI: > 100 µM
CCRF-CEM leukemia
  TGI: > 100 µM
NCI-H522 lung
  TGI: 52.4 µM
TK-10 renal
  TGI: 93.4 µM
HCC-2998 colon
  TGI: 32.2 µM
